Among the data in US9938276B2, “6,5-bicyclic octahydropyrrolopyridine orexin receptor antagonists” (Merck Sharp & Dohme Corp., priority 2014, dated 2018) are IC50 values, retold here.

One test addresses human orexin-2 receptor (Homo sapiens (Human), UniProt O43614). Kind of test: hOX2R FLIPR Ca2+ flux assay. In kind it is cell-based. Particulars: CHO cells expressing the receptor; agonist 70 pM Ala-6,12 human orexin-A. The procedure:
In a typical experiment the OX1 and OX2 receptor antagonistic activity of the compounds of the present invention was determined in accordance with the following experimental method. For intracellular calcium measurements, Chinese hamster ovary (CHO) cells expressing the rat orexin-1 receptor or the human orexin-2 receptor, are grown in Iscove's modified DMEM containing 2 mM L-glutamine, […], 1% hypoxanthine-thymidine supplement, 100 U/ml penicillin, 100 μg/ml streptomycin and 10% heat-inactivated fetal calf serum (FCS). The cells are seeded at 20,000 cells/well into Becton-Dickinson black 384-well clear bottom sterile plates coated with poly-D-lysine. All reagents were from GIBCO-Invitrogen Corp. The seeded plates are incubated overnight at 37° C. and 5% CO2. Ala-6,12 human orexin-A as the agonist is prepared as a 1 mM stock solution in 1% bovine serum albumin (BSA) and diluted in assay buffer (HBSS containing 20 mM HEPES, 0.1% BSA and 2.5 mM probenecid, pH7.4) for use in the assay at a final concentration of 70 pM. Test compounds are prepared as 10 mM stock solution in DMSO, then diluted in 384-well plates, first in DMSO, then assay buffer. On the day of the assay, cells are washed 3 times with 100 μl assay buffer and then incubated for 60 min (37° C., 5% CO2) in 60 μl assay buffer containing 1 μM Fluo-4AM ester, 0.02% pluronic acid, and 1% BSA. The dye loading solution is then aspirated and cells are washed 3 times with 100 μl assay buffer. 30 μl of that same buffer is left in each well. Within the Fluorescent Imaging Plate Reader (FLIPR, Molecular Devices), test compounds are added to the plate in a volume of 25 μl, incubated for 5 min and finally 25 μl of agonist is added. Fluorescence is measured for each well at 1 second intervals for 5 minutes and the height of each fluorescence peak is compared to the height of the fluorescence peak induced by 70 pM Ala-6,12 orexin-A with buffer in place of antagonist. […] Alternatively, compound potency can be assessed by a radioligand binding assay (described in Bergman et. al. Bioorg. Med. Chem. Lett. 2008, 18, 1425-1430) in which the inhibition constant (Ki) is determined in membranes prepared from CHO cells expressing either the OX1 or OX2 receptor. The intrinsic orexin receptor antagonist activity of a compound which may be used in the present invention may be determined by these assays.
A general note: A change in cytosolic calcium serves as a functional read-out for many receptors and channels.

A further test deals with hOX1R (Homo sapiens, UniProt O43613). Kind of test: hOX1R FLIPR Ca2+ flux assay. In kind it is cell-based. Particulars: CHO cells expressing the receptor; agonist 70 pM Ala-6,12 human orexin-A.

human orexin-2 receptor, sequence (O43614 whole entry): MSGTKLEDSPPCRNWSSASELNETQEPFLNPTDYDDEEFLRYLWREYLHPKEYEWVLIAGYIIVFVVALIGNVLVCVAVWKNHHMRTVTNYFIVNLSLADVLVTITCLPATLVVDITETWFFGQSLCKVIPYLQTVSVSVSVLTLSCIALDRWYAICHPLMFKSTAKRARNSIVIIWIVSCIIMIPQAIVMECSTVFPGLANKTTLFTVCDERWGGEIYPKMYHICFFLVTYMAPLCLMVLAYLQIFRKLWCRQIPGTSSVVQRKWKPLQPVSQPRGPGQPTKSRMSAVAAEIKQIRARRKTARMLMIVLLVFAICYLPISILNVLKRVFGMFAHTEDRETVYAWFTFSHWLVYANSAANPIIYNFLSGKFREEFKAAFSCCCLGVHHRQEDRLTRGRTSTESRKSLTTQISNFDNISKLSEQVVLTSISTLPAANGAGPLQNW

Turning to `COC(=O)c1nc(N2CC[C@H]3CCN(C(=O)c4ccccc4-n4nccn4)C[C@H]32)sc1C` (stereo in doubt) [Example B12, methyl 2-((3aR, 7aS)-6-(2-(2H-1,2,3-triazol-2-yl)benzoyl)octahydro-1H-pyrrolo[2,3-c]pyridin-1-yl)-5-methylthiazole-4-carboxylate], the IC50 came out at 1340 nM on human orexin-2 receptor and 10 µM at hOX1R.
For `N#Cc1ccnc(N2CC[C@H]3CCN(C(=O)c4ccccc4-n4ncnn4)C[C@H]32)c1` (stereo in doubt) [Example D2, 2-((3aS, 7aS)-6-(2-(2H-tetrazol-2-yl)benzoyl)octahydro-1H-pyrrolo[2,3-c]pyridin-1-yl)isonicotinonitrile], in that order: 110 nM and 10 µM.
The matching figures for `N#Cc1ccnc(N2CC[C@H]3CCN(C(=O)c4ccccc4OC(F)(F)F)C[C@H]32)c1` (stereo in doubt) [Example D3, 2-((3aS, 7aS)-6-(2-(trifluoromethoxy)benzoyl)octahydro-1H-pyrrolo[2,3-c]pyridin-1-yl)isonicotinonitrile]: 79.1 nM and 10 µM.
For `N#Cc1ccnc(N2CC[C@H]3CCN(C(=O)c4nccnc4-c4ccccn4)C[C@H]32)c1` (stereo in doubt) [Example D4, 2-((3aS, 7aS)-6-(3-(pyridin-2-yl)pyrazine-2-carbonyl)octahydro-1H-pyrrolo[2,3-c]pyridin-1-yl)isonicotinonitrile], in that order: 328 nM and not below 10 µM.
Regarding `N#Cc1ccnc(N2CC[C@H]3CCN(C(=O)c4cccnc4-n4cccn4)C[C@H]32)c1` (stereo in doubt) [Example D5, 2-((3aS, 7aS)-6-(2-(1H-pyrazol-1-yl)nicotinoyl)octahydro-1H-pyrrolo[2,3-c]pyridin-1-yl)isonicotinonitrile], the half-maximal inhibitory concentration (IC50) was 37 nM at human orexin-2 receptor and 10 µM at hOX1R.
Turning to `N#Cc1ccnc(N2CC[C@H]3CCN(C(=O)c4nccnc4-n4cccn4)C[C@H]32)c1` (stereo in doubt) [Example D6, 2-((3aS, 7aS)-6-(3-(1H-pyrazol-1-yl)pyrazine-2-carbonyl)octahydro-1H-pyrrolo[2,3-c]pyridin-1-yl)isonicotinonitrile], the IC50 on human orexin-2 receptor was determined as 117 nM; at hOX1R, 10 µM.
The matching figures for `N#Cc1ccnc(N2CC[C@H]3CCN(C(=O)c4ccccc4-n4nccn4)C[C@H]32)c1` [Example A1, 2-((3aS,7aS)-6-(2-(2H-1,2,3-triazol-2-yl)benzoyl)octahydro-1H-pyrrolo[2,3-c]pyridin-1-yl)isonicotinonitrile]: 40.5 nM and 10 µM.
The matching figures for `Cc1cc(C)nc(N2CC[C@@H]3CCN(C(=O)c4ccccc4-n4nccn4)C[C@@H]32)n1` [Example A2, (2-(2H-1,2,3-triazol-2-yl)phenyl)((3aR, 7aR)-1-(4,6-dimethylpyrimidin-2-yl)hyexahydro-1H-pyrrolo[2,3-c]pyridin-6(2H)-yl)methanone]: 163 nM and 10 µM.
For `N#Cc1ccnc(N2CC[C@@H]3CCN(C(=O)c4ccccc4-n4nccn4)C[C@@H]32)n1` [Example A3, 2-((3aR, 7aR)-6-(2-(2H-1,2,3-triazol-2-yl)benzoyl)octahydro-1H-pyrrolo[2,3-c]pyridin-1-yl)pyrimidine-4-carbonitrile], in that order: 943 nM and 10 µM.
`Cc1cc(C#N)nc(N2CC[C@@H]3CCN(C(=O)c4ccccc4-n4nccn4)C[C@@H]32)n1` [Example A4, 2-((3aR, 7aR)-6-(2-(2H-1,2,3-triazol-2-yl)benzoyl)octahydro-1H-pyrrolo[2,3-c]pyridin-1-yl)-6-methylpyrimidine-4-carbonitrile]: the results for the IC50 on human orexin-2 receptor and at hOX1R were 10000 nM and 10 µM, respectively.
The matching figures for `COc1cc(OC)nc(N2CC[C@@H]3CCN(C(=O)c4ccccc4-n4nccn4)C[C@@H]32)n1` [Example A5, (2-(2H-1,2,3-triazol-2-yl)phenyl)((3aR, 7aR)-1-(4,6-dimethoxypyrimidin-2-yl)hexahydro-1H-pyrrolo[2,3-c]pyridin-6(2H)-yl)methanone]: 2100 nM and 10 µM.
For `O=C(c1ccccc1-n1nccn1)N1CC[C@H]2CCN(c3ncccn3)[C@H]2C1` [Example A6], in that order: 6080 nM and 10 µM.
For `COC(=O)c1ccnc(N2CC[C@@H]3CCN(C(=O)c4ccccc4-n4nccn4)C[C@@H]32)c1` [Example A8], in that order: not below 10000 nM and not below 10 µM.
As to `COc1cc(N2CC[C@@H]3CCN(C(=O)c4ccccc4-n4nccn4)C[C@@H]32)ncc1C#N` [Example A9], the IC50 was 2640 nM on human orexin-2 receptor and not below 10 µM on hOX1R.
The matching figures for `O=C(c1ccccc1-n1nccn1)N1CC[C@H]2CCN(c3ccc(-n4ccnc4)nn3)[C@H]2C1` [Example A10, (3aR, 7aR)-(1-(6-(1H-imidazol-1-yl)pyridazin-3-yl)hexahydro-1H-pyrrolo[2,3-c]pyridin-6(2H)-yl)(2-(2H-1,2,3-triazol-2-yl)phenyl)methanone]: 10000 nM and 10 µM.
For `Cc1ccc(C)n1-c1ccc(N2CC[C@@H]3CCN(C(=O)c4ccccc4-n4nccn4)C[C@@H]32)nn1` [Example A11, (2-(2H-1,2,3-triazol-2-yl)phenyl)((3aR, 7aR)-1-(6-(2,5-dimethyl-1H-pyrrol-1-yl)pyridazin-3-yl)hexahydro-1H-pyrrolo[2,3-c]pyridin-6(2H)-yl)methanone], in that order: 10000 nM and 10 µM.
For the compound `COC(=O)c1ccc(N2CC[C@@H]3CCN(C(=O)c4ccccc4-n4nccn4)C[C@@H]32)nn1` [Example A12, methyl 6-((3aR, 7aR)-6-(2-(2H-1,2,3-triazol-2-yl)benzoyl)octahydro-1H-pyrrolo[2,3-c]pyridin-1-yl)pyridazine-3-carboxylate], the half-maximal inhibitory concentration (IC50) on human orexin-2 receptor was not below 10000 nM; on hOX1R, not below 10 µM.
For `O=C(c1ccccc1-n1nccn1)N1CC[C@H]2CCN(c3ncnc4scnc34)[C@H]2C1` [Example A13, (2-(2H-1,2,3-triazol-2-yl)phenyl)((3aR, 7aR)-1-(thiazolo[5,4-d]pyrimidin-7-yl)hexahydro-1H-pyrrolo[2,3-c]pyridin-6(2H)-yl)methanone], in that order: not below 10000 nM and not below 10 µM.
As to `N#Cc1cc(Cl)ncc1N1CC[C@@H]2CCN(C(=O)c3ccccc3-n3nccn3)C[C@@H]21` [Example A14, 5-((3aR, 7aR)-6-(2-(2H-1,2,3-triazol-2-yl)benzoyl)octahydro-1H-pyrrolo[2,3-c]pyridin-1-yl)-2-chloroisonicotinonitrile], the results for the IC50 at human orexin-2 receptor and on hOX1R were not below 10000 nM and not below 10 µM, respectively.
For `Cc1c(C#N)ccnc1N1CC[C@@H]2CCN(C(=O)c3ccccc3-n3nccn3)C[C@@H]21` [Example A15, 2-(cis-6-(2-(2H-1,2,3-triazol-2-yl)benzoyl)ocathydro-1H-pyrrolo[2,3-c]pyridin-1-yl)-3-methylisonicotinonitrile], in that order: 84.8 nM and not below 10 µM.
For `CN(C)c1ccnc(N2CC[C@@H]3CCN(C(=O)c4ccccc4-n4nccn4)C[C@@H]32)c1C#N` [Example A17, 4-(dimethylamino)-2-[(3aR, 7aR)-6-{[2-(2H-1,2,3-triazol-2-yl)phenyl]carbonyl}octahydro-1H-pyrrolo[2,3-c]pyridin-1-yl]pyridine-3-carbonitrile], in that order: 69.8 nM and not below 10 µM.
The matching figures for `CN(C)c1cc(Cl)nc(N2CC[C@@H]3CCN(C(=O)c4ccccc4-n4nccn4)C[C@@H]32)n1` [Example A18, 6-chloro-N,N-dimethyl-2-[(3aR, 7aR)-6-{[2-(2H-1,2,3-triazol-2-yl)phenyl]carbonyl}octahydro-1H-pyrrolo[2,3-c]pyridin-1-yl]pyrimidin-4-amine]: 130 nM and 3.24 µM.
`N#Cc1ccnc(N2CC[C@@H]3CCN(C(=O)c4ccccc4-n4nccn4)C[C@@H]32)c1Cl` [Example A19, 3-chloro-2-[(3aR, 7aR)-6-{[2-(2H-1,2,3-triazol-2-yl)phenyl]carbonyl}octahydro-1H-pyrrolo[2,3-c]pyridin-1-yl]pyridine-4-carbonitrile]: the IC50 was 95.5 nM on human orexin-2 receptor and not below 10 µM at hOX1R.
For `O=C(c1ccccc1-n1nccn1)N1CC[C@H]2CCN(c3cc(C(F)(F)F)ccn3)[C@H]2C1` [Example A20, (3aR, 7aR)-6-{[2-(2H-1,2,3-triazol-2-yl)phenyl]carbonyl}-1-[4-(trifluoromethyl)pyridin-2-yl]octahydro-1H-pyrrolo[2,3-c]pyridine], the IC50 at human orexin-2 receptor is 66.5 nM; at hOX1R, 3.96 µM.

Broadly, the IC50 is the concentration at which inhibition is half-maximal. Higher therefore signals a need for much substance.
